# Experimental data as given in US8318792B2, “Therapeutic agent for amyotrophic lateral sclerosis” (Nippon Medical School Foundation, priority 2006, dated 2012).
# Key:
# Type in all cases: in vivo, mouse
# G1H-G93A transgenic mice [1] = assay: Exercise tolerance test: extension reflex test; details: for Extension reflex test score: 5 mg/kg oral daily from 80th day (before onset), score 0-2
# Experimental: (§1) The following five kinds of exercise tolerance tests were conducted every fifth day from the 70th day after birth to evaluate the ability to exercise in the respective exercise tolerance tests. That is, the days for the exercise tolerance tests were every fifth days, such as the 70th day, 75th day, 80th day, 85th day and so on, after birth. The exercise tolerance tests were conducted throughout the survival period, and the post-mortem evaluation was based on the definitions of the following five kinds of exercise tolerance tests.
# As for extension reflex, extension of the hindlimbs is normally observed when a mouse is suspended in the air by its tail.
# The evaluation of extension reflex test of the mice was performed based on the following criteria: Score 0=Extension reflex is recognized in both of the hindlimbs; Score 1=Extension reflex is recognized only one hindlimb; and Score 2=Extension reflex is not recognized in both of the hindlimbs. The post-mortem evaluation of the extension reflex test is defined as score 2.
# G1H-G93A transgenic mice [2] = assay: Exercise tolerance test: footprint test; details: 5 mg/kg oral daily from 80th day (before onset), score 0-4
# Experimental: as §1
# Both hindlimbs of a mouse are dipped in a black ink bottle, and then the mouse is allowed to walk on white paper. The footprints of the two hindlimbs of the mouse after the walking are analyzed. […] The post-mortem evaluation of the footprint test is defined as score 4.
# G1H-G93A transgenic mice [3] = assay: Histopathological study: number of spinal cord anterior horn cells; details: end stage, 5 mg/kg oral daily from 80th day after birth (before onset)
# Experimental: The mouse supplied to the experiment is anesthetized by intraperitoneal injection of pentobarbital sodium in an amount of 1 mL per kg of the mouse body weight. After confirming that the mouse is completely under anesthesia, laparotomy and thoracotomy are performed, and blood is completely removed from the visceral organs of the whole body by perfusion of physiological saline at 37° C. via the left ventricle and aorta. The complete removal of blood from the visceral organs of the whole body is carried out by confirming complete removal of the blood of the aorta in the thoracic part and abdominal part, mesenteric arteries, liver, kidneys, and small arteries on the surfaces of the stomach, small intestine and large intestine under direct visual inspection. Subsequently, perfusion of 50 mL of physiological saline at 37° C. is performed. Immediately thereafter, the perfusion is performed with a fixative (4% paraformaldehyde supplemented with 0.1 M cacodylate buffer, pH 7.4). The spinal cord is removed and re-fixed with the same fixative for 18 hours. After the fixation of spinal cord tissue, each spinal cord segments is cut out to examine the spinal cord tissue. For the detailed analyses of spinal cord tissues, two segments of the cervical spinal cord (upper and lower cervical segments), three segments of the thoracic spinal cord (upper, middle, and lower thoracic segments), and two segments of lumbar spinal cord (upper and lower lumbar segments) were cut out to provide seven segments in total. Each spinal cord segments are respectively embedded in paraffin to produce paraffin blocks, and then cut into paraffin sections having a thickness of 5 μm using a microtome. The paraffin sections are subjected to hematoxylin and eosin (HE) staining.
# For a quantitative analysis, serial 25 paraffin sections having a thickness of 5 μm were produced in series from the respective segment paraffin blocks of the spinal cord, and the 1st section, 7th section, 13th section, 19th section and 25th section were selected and subjected to HE staining. Specifically, paraffin sections were selected such that one paraffin section was taken at a […], and 5 HE preparations were produced from a single spinal cord segments. Therefore, 10 HE preparations from two areas for the entire cervical spinal cord, 15 HE preparations from three areas for the entire thoracic spinal cord, and 10 HE preparations from two areas for the entire lumbar spinal cord, were produced.
# In order to calculate the number of motor neurons in the anterior horn, all of the HE stained sections were observed under a light microscope (BX41: Olympus Corp., Tokyo, Japan) equipped with a 3CCD digital color camera system for the microscope (FX380: Olympus Corp., Tokyo, Japan). Subsequently, photographs of the anterior horn region (corresponding to VII, VIII and IX Rexed areas) in the HE stained sections of the respective myelomere tissues of the spinal cord were taken, and the images were analyzed using an image analysis-filing software (FLVFS-LS Ver. 1.12: Olympus Corp., Tokyo, Japan). In regard to the definition of the motor neuron in the anterior horn of spinal cord (spinal cord anterior horn cells), cells in the HE stained sections, which have a nucleus carrying a definite nucleolus and contain a cell body having a diameter of 25 μm or more, were selected as the spinal cord anterior horn cells (Klivenyi P, et al., Nature Med 1999; 5:347-351, Kong J & Xu Z, J Neurosci 1998; 18:3241-3250, and Stephens B, et al., Neuropathol Appl Neurobiol 2001; 27:352-361). Based on this definition, the number of spinal cord anterior horn cells was counted for each of the HE stained sections. The respective numbers of spinal cord anterior horn cells in the cervical spinal cord, thoracic spinal cord and lumbar spinal cord of one mouse was calculated from the total number of spinal cord anterior horn cells in five HE stained sections. […]
# [4] = per five HE sections, average±SD
smiles,measurement,setting,value
"N#Cc1cc(-c2n[nH]c(-c3ccncc3)n2)ccn1 [compound (b), 4-(5-pyridin-4-yl-1H-[1,2,4]triazol-3-yl)pyridine-2-carbonitrile]",Extension reflex test score,"G1H-G93A transgenic mice [1]; 70th day after birth, 5 mg/kg",0.0±0.0
same,Extension reflex test score,"G1H-G93A transgenic mice [1]; 75th day after birth, 5 mg/kg",0.0±0.0
same,Extension reflex test score,"G1H-G93A transgenic mice [1]; 80th day after birth, 5 mg/kg",0.0±0.0
same,Extension reflex test score,"G1H-G93A transgenic mice [1]; 85th day after birth, 5 mg/kg",0.0±0.0
same,Extension reflex test score,"G1H-G93A transgenic mice [1]; 90th day after birth, 5 mg/kg",0.0±0.0
same,Extension reflex test score,"G1H-G93A transgenic mice [1]; 95th day after birth, 5 mg/kg",0.0±0.0
same,Extension reflex test score,"G1H-G93A transgenic mice [1]; 100th day after birth, 5 mg/kg",0.0±0.0
same,Extension reflex test score,"G1H-G93A transgenic mice [1]; 105th day after birth, 5 mg/kg",0.0±0.0
same,effect in extension reflex test as compared to placebo group,"G1H-G93A transgenic mice [1]; 105th, 110th, 115th and 120th day, 5 mg/kg oral daily from 80th day after birth, Mann-Whitney's U test",significant effects
same,Extension reflex test score,"G1H-G93A transgenic mice [1]; 110th day after birth, 5 mg/kg",0.1±0.3
same,Extension reflex test score,"G1H-G93A transgenic mice [1]; 115th day after birth, 5 mg/kg",0.5±0.5
same,Extension reflex test score,"G1H-G93A transgenic mice [1]; 120th day after birth, 5 mg/kg",1.3±0.5
same,Extension reflex test score,"G1H-G93A transgenic mice [1]; 125th day after birth, 5 mg/kg",1.8±0.4
same,Extension reflex test score,G1H-G93A transgenic mice [1]; 130th day after birth,2.0 ± 0.0
same,Extension reflex test score,G1H-G93A transgenic mice [1]; 135th day after birth,2.0 ± 0.0
same,Extension reflex test score,G1H-G93A transgenic mice [1]; 140th day after birth,2.0 ± 0.0
same,Extension reflex test score,G1H-G93A transgenic mice [1]; from the 130th day to 140th day after birth,2.0±0.0
same,Footprint test score,G1H-G93A transgenic mice [2]; 70th day after birth,0.0±0.0
same,Footprint test score,G1H-G93A transgenic mice [2]; 75th day after birth,0.0±0.0
same,Footprint test score,G1H-G93A transgenic mice [2]; 80th day after birth,0.0±0.0
same,Footprint test score,G1H-G93A transgenic mice [2]; 85th day after birth,0.0±0.0
same,Footprint test score,G1H-G93A transgenic mice [2]; 90th day after birth,0.0±0.0
same,Footprint test score,G1H-G93A transgenic mice [2]; 95th day after birth,0.0±0.0
same,Footprint test score,G1H-G93A transgenic mice [2]; 100th day after birth,0.0±0.0
same,Footprint test score,G1H-G93A transgenic mice [2]; 105th day after birth,0.0±0.0
same,Footprint test score,G1H-G93A transgenic mice [2]; 110th day after birth,0.1±0.3
same,Footprint test score,G1H-G93A transgenic mice [2]; 115th day after birth,0.6±0.7
same,Footprint test score,G1H-G93A transgenic mice [2]; 120th day after birth,1.8±1.0
same,Footprint test score,G1H-G93A transgenic mice [2]; 125th day after birth,2.8±0.4
same,Footprint test score,G1H-G93A transgenic mice [2]; 130th day after birth,3.4±0.5
same,Footprint test score,G1H-G93A transgenic mice [2]; 135th day after birth,3.9±0.3
same,Footprint test score,G1H-G93A transgenic mice [2]; 140th day after birth,4.0±0.0
same,"difference to placebo group in number of spinal cord anterior horn cells (cervical, thoracic or lumbar segment)","G1H-G93A transgenic mice [3]; P>0.05, Mann-Whitney's U test",no significant difference
same,number of spinal cord anterior horn cells in the cervical segment,G1H-G93A transgenic mice [3]; [4],4.6±2.0
same,number of spinal cord anterior horn cells in the lumbar segment,G1H-G93A transgenic mice [3]; [4],5.3±2.7
same,number of spinal cord anterior horn cells in the thoracic segment,G1H-G93A transgenic mice [3]; [4],1.9±1.7
